Assay results: patent US20250206754A1, “PAN-CHEMOKINE ANTAGONISTS FOR USE IN TREATING CANCER AND IMMUNE DISORDERS” ("Micar Innovation" LTD., priority 2022, published 2025)

Legend:
CCR7 [1] = biological target: T1, CCR7 (Homo sapiens, UniProt P32248); assay: ERK assay, CCR7; format: cell-based
T1 construct: expressed in transfected cells
T1 sequence (P32248 25-378): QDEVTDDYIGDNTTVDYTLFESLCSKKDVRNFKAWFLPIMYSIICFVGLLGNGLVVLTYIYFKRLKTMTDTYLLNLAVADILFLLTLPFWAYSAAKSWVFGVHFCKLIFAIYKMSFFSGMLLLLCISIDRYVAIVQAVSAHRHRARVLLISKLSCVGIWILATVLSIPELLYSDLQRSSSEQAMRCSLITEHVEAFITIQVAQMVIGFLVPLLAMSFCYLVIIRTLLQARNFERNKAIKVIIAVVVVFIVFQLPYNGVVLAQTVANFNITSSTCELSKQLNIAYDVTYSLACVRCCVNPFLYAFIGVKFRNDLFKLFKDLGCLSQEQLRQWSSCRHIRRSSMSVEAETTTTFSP
Procedure: (§1) The Kb values are also retrieved. […] Finally, to make it more clear the second messenger output for Hit1 and confirm the nature of β-arrestin bias GTPγS and ERK assays were also performed. […] Considering that the ERK is directly related to β-arrestin path and binds directly to the arrestin it was concluded that this compound is β-arrestin biased (Table 1 and FIGS. 3A and 3B). Finally, several other potential hits were identified but the activities were in a range of 25-35% at 100 μM concentration and they were discarded in this disclosure.
(§2) Current diversity data provide also several additional experimental evidences which are against colloid aggregation activity dependence: • Almost identical steep dose-response curves have been observed for the natural CCL19 and CCL21 agonists. Thus, it seems that this is not unique to Hit 1 case. • Hill coefficient of 1.5 in the ERK experiments and no steep slope (FIG. 3A). Moreover, the ERK dose-response curve looks like a typical single antagonist ligand. • At the same conditions as in the ERK assay the compound was in particular not active in the GTPγS assay up to 100 μM (FIG. 3B). […]

CCR3 = biological target: T2, CCR3 (Homo sapiens, UniProt P51677); assay: β-arrestin selectivity assay, CCR3; format: cell-based
T2 sequence (P51677 1-355): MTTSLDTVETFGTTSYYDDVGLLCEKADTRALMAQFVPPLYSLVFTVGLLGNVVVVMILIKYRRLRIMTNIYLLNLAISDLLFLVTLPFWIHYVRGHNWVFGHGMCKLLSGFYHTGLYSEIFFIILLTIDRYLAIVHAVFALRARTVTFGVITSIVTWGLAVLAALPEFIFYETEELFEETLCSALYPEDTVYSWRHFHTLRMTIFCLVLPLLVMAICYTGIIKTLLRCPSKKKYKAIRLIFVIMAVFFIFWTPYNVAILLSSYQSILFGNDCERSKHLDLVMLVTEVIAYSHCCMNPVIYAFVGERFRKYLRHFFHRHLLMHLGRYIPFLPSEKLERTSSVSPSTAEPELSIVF

CCR5 [2] = biological target: T3, CCR5 (Homo sapiens, UniProt P51681); assay: cAMP assay, CCR5; format: cell-based; details: CCR5 (data not shown)
Procedure: as §1

β-lactamase = β-lactamase enzymatic activity counterscreen (colloid aggregation); format: biochemical; details: 50 μM
Procedure: To examine the colloid aggregation possibility a β-lactamase enzymatic activity counterscreen assay was performed, which is the commonly adopted tool for detection of such properties of the compounds.

CCR7 [3] = biological target: T1, CCR7; assay: GTPγS assay, CCR7; format: biochemical
Procedure: as §1, §2

CCR5 [4] = biological target: T3, CCR5; assay: Ca^2+ mobilization assay, CCR5; format: cell-based
Procedure: as §1

CCR5 [5] = biological target: T3, CCR5; assay: β-arrestin selectivity assay, CCR5; format: cell-based
[6] = tested on: primary human keratinocytes; assay: Cell viability in the keratinocyte inflammation models; format: cell-based; details: in the cytokine release models
CCR9 = biological target: T4, CCR9 (Homo sapiens, UniProt P51686); assay: Ca^2+ mobilization assay, CCR9; format: cell-based
T4 sequence (P51686 1-369): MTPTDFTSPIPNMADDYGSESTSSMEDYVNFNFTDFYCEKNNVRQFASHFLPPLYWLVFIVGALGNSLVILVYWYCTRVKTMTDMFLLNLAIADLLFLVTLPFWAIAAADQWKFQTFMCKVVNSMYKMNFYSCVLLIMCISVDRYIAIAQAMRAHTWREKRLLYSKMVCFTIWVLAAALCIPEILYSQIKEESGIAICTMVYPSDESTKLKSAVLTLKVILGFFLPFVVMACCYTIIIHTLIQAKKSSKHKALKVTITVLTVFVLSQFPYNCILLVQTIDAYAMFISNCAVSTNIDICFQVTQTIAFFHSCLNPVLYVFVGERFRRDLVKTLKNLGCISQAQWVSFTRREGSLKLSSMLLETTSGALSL
Procedure: as §1

CCR1 = biological target: T5, CCR1 (Homo sapiens, UniProt P32246); assay: β-arrestin selectivity assay, CCR1; format: cell-based
T5 sequence (P32246 1-355): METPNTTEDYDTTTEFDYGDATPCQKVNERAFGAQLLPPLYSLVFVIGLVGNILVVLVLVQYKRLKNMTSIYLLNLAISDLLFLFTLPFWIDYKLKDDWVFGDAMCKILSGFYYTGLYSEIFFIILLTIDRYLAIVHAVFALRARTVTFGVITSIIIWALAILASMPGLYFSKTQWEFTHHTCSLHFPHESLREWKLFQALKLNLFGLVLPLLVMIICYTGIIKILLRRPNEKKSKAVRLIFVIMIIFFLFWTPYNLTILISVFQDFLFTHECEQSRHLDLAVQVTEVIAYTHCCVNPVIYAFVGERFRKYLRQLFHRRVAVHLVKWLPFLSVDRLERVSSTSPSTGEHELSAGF

MB231cell line = assay: Migration assay by MB231 cell line with CCL19/CCL21; details: 100 nM of CCL19/CCL21
Procedure: For this purpose a model for the inhibition of CCL2 release from IL-4, IL-13, IL-22 and IFNγ-stimulated primary human keratinocytes (Eczematous inflammation) was used and also an assay for the inhibition of IL-8 release from IL-17A and TNFα (Psoriatic inflammation). […] Finally, migration assay by MB231cell line was performed.

T3 sequence (P51681 whole entry): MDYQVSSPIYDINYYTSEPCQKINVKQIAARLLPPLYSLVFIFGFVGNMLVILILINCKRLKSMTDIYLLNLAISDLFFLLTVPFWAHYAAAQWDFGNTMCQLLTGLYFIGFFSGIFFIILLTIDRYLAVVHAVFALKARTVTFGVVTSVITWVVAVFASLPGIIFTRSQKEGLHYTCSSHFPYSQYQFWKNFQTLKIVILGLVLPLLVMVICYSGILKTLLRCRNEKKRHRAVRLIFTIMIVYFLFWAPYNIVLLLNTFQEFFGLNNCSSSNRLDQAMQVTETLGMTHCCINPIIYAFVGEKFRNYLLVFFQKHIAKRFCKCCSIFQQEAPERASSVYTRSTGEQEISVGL

NC(=O)c1ccccc1Oc1ncnc2sc(-c3ccccc3)cc12 [Hit 1, 2-({6-phenylthieno[2,3-d]pyrimidin-4-yl}oxy)benzamide]
IC50 (CCR7 [1]; ERK assay): 18.1 µM
Hill coefficient (CCR7 [1]; ERK experiments): 1.5
Hill coefficient (CCR3): 2.6
IC50 (CCR3): 4.4 µM
IC50 (CCR5 [2]): 50 µM
activity on β-lactamase (β-lactamase): −18%
antagonist activity (CCR7 [3]; GTPγS assay, highest concentration of 100 μM): 16%
activity in GTPγS assay (CCR7 [3]; up to 100 μM): not active
Kb (CCR5 [4]): 10.5 µM
Hill-Slope (CCR5 [4]; Ca^2+ assay): 1.2
IC50 (CCR5 [4]; Ca^2+ mobilization assay): 55 µM
Hill coefficient (CCR5 [5]): 1.9
IC50 (CCR5 [5]): 1.9 µM
cell viability [6]: Some inhibition of the cell viability
Kb (CCR9): 5.2 µM
Hill-Slope (CCR9; Ca^2+ assay): 0.8
IC50 (CCR9; Ca^2+ mobilization assay): 58 µM
Hill coefficient (CCR1): 2.3
IC50 (CCR1): 13.6 µM
reduction of CCL19/CCL21-induced migration (MB231cell line): 10 folds
migratory cells (MB231cell line; control 100%, CCL19/CCL21 200%): 20%
